Experimental data: US7919579B2, “Imaging and therapeutic targeting of prostate and bladder tissues” (The Board of Regents of the University of Texas System, priority 2006, dated 2011)
Values belong to the molecule of their own block, whether it stands above or below them. No end group written: not given here. *: point of attachment. FITC = O=C1OC2(c3ccc(O)cc3Oc3cc(O)ccc32)c2ccc(NC(=S)*)cc21

What was measured:
[1] = set-up: species or system nude mice; conditions: in vivo
Procedure: FIGS. 9A-C—Comparison of delivery efficiency between different length of polyarginines. (FIG. 9A) In vitro uptake by bladder cancer cell lines 30 min after incubation. Relative uptake was determined by fluorometer and normalized using R11 5 μM (=1) in each cell line. (FIG. 9B) Animal study (n=3; 24 h post injection). The peptides (5 nmole/gram body weight) were administered via intravenous (IV) route. SV: seminal vesicle; CG: coagulation gland. (FIG. 9C) The tissue localization of FITC-R11 in mouse bladder.
Although the cellular uptake mechanism of CPPs is not completely understood, they were not supposed to have cell specificity. Also, the efficiency of CPPs delivery varies among different species and length. For example, Mai et al. (2002) has reported that the 8-mer and 10-mer of polylysine have higher cell permeable efficiency for a broad range of cell types than polyarginine does. However, the inventors observed that polyarginine is more efficiency than polylysine in bladder cancer cells (FIG. 9A). In order to further determine whether R11 is the best polyarginine for bladder cancer cells, the inventors examined the uptake efficiency using different lengths of polyarginine.

LNCaP [2] = conditions: human, 5 μM
Procedure: (§4) The fluorescence-labeled CPPs (TAT, Penetratin (PENE), KALA, R11 & K11) were synthesized and tested in a variety of PCa cells (LNCaP, C4-2, LAPC4 and PC3 cells). […] Different concentrations of each CPP were incubated with cells for 30 minutes prior to cell harvesting. Relative FITC intensity was determined by normalizing fluorescence intensity of each treatment with its cell numbers. […] R11 (5 μM) was incubated with cells at the indicated time. Relative FITC intensity was determined by normalizing fluorescence intensity of each treatment with its cell numbers. […] Cells were pulsed with R11 (5 μM) chased for the indicated time and the percentage of uptake was used time zero (=100%). Each column or data point represents mean±SD in triplicate. […]
(§5) Therefore, the dynamics of R11 uptake was evaluated by incubating cells with 5 μM R11 for 5, 10 and 30 minutes. […]
(§6) To determine the uptake efficiency of each CPP, different concentrations (0.1, 1, 5 μM) of FITC-tagged peptides were incubated with cells for 30 minutes (or different time for the time course study) then cells were washed twice with PBS and trypsinized. After washing with PBS twice, the total cell number was determined and cells were lysed in Tris Buffer (50 mM Tris-HCl, pH 7.5, 150 mM NaCl, 5 mM EDTA, 1% Triton X100). The fluorescence intensity was examined by fluorometer (excitation 490-500 nm; emission 515-525 nm). […]

C4-2 = conditions: human, 5 μM
Procedure: as §4, §5, §6

PC3 = conditions: human, 5 μM
Procedure: as §4, §5, §6

in vitro = conditions: human
Procedure: as §4, §5, §6

[3] = system: lung metastasis of T24 bladder cancer; conditions: mouse, in vivo
Procedure: Top right panel, athymic nude mice were chosen based on a similar size of lung metastasis of bladder cancer from BLI were IV injected with 5 nmole FITC-R11 (left) or FITC (right) per gram body weight. Twenty-four hours after injection, whole body imaging (top left panel) or ex vivo imaging (bottom middle and right panel) of lung was carried out with Maestro In-vivo Imaging System (CRI, Inc.). The image shown is one of the representative experiments.

LAPC4 = conditions: human, 5 μM
Procedure: as §4, §5, §6

[4] = system: PCa cells (LNCaP, C4-2, LAPC4 and PC3); assay: uptake of FITC-tagged CPPs by PCa cells (fluorometer); type: cell-based; conditions: four PCa cells; 30 minutes
Procedure: Cell culture and peptide incubation. All PCa cell lines (LNCaP, C4-2, LAPC4 and PC3) were maintained as described previously (Zhou et al., 2005). To determine the peptide uptake, 1×10^5 cells per well were plated in a 12-well plate. Next day, the culture medium was replaced with RPMI medium supplemented with 0.5% FBS (Invitrogen, Carlsbad, Calif.) containing different concentrations fluorescence (FITC)-tagged peptides and incubation was carried out at the indicated time. For determining cellular location of peptide, cells were cultured overnight in slide chamber at a density of 25×10^4/cm^2. The FITC tagged peptides were incubated for 30 minutes in the presence of RPMI medium supplemented with 0.5% of FBS prior to fluorescence microscopy.
Fluorescence intensity determination and Fluorescence microscopy.
Screening of the most efficient CPP uptake by prostate cancer (PCa) cell lines. To deliver small peptide into target cells, CPP was employed as a delivery system. Five different CPPs were synthesized including TAT (amino acid 49-57), Penetratin (Antennapedia 43-58) (PENE), KALA peptide, poly-arginine (R11) and poly-lysine (K11). All the CPPs were incorporated with a FITC-labeled glycine at their N-terminal ends. […] To determine the uptake quantitatively, fluorometer was used to measure the intensity of each CPP per cell basis. To rule out the possible artifacts such as CPP only associated with the cell surface and the pH variation from different organelles, cells were trypsinized and washed extensively with PBS, and a buffer with neutral pH was used in this experiment. […] In general, the uptake efficiency of five different CPPs tested can be considered as R11>>KALA≧TAT≧PENE≧K11 among four PCa cells.

[5] = system: interaction of Grb2 with SOS; assay: in vitro pull down assay, GST-Grb2 (SH3) binding of SOS; conditions: C4-2 cell lysate after EGF; peptide 10, 30, 100 μM
Procedure: (§1) FIGS. 4A-B—Mechanism of action of R11PPL in PCa cells. To determine the function of R11PPL (SEQ ID NO:11) on interaction of Grb2 with SOS, the C4-2 cell lysates were collected after treated with EGF (FIG. 4A). The GST fusion protein with SH3 domain of Grb2 was used for the pull-down assay. The same amount of immobilized GST-Grb2 (SH3) protein (IB:αGST) was incubated with equal amount of cell lysate in addition of no peptide, the increasing amount of control R11AAL (SEQ ID NO:10) or R11PPL (SEQ ID NO:11) peptide as indicated. The binding of SOS was analyzed with Western Blot using SOS1 antibody. DOC-2/DAB2 expression plasmid transfection was used as a positive control. To examine the effect of R11PPL on MAP kinase activity (FIG. 4B), C4-2 cells were incubated with 5 μM R11PPL, R11AAL or R11 (SEQ ID NO:6) peptide 3 hours before adding EGF (10 ng/ml) (top panel) or 5% FBS (bottom panel). Cell lysates were subjected to western blot analysis probed with phosphorylated Erk1 and 2 antibody (αpErk1/2) or total Erk2 antibody (αErk2) used as a loading control. Each experiment has been repeated twice; this graph represents the typical result.
In vitro pull down assay. […] The increasing concentrations of peptide (10, 30, 100 μM) for R11PPL or R11AAL were also added during the incubation. […]

[6] = system: MAP kinase (Erk2) activation; assay: Western blot of phosphorylated Erk1/2 in C4-2 cells; type: cell-based
Procedure: as §1
Western blot analysis. Cells were plated in 6-well plates (2×10^5 per well) with T medium containing 5% FBS. […] The protein intensity was detected using an enhanced chemiluminescence detection kit (Amersham, Piscataway, N.J.). […]

LNCaP [7] = assay: cell growth assay (MTT), serum or DHT-induced proliferation; type: cell-based; conditions: 5 μM peptide, 5% FBS or 10 nM DHT, MTT 4 days
Procedure: (§2) FIGS. 3A-B—Inhibitory effect of R11PPL on serum and androgen-induced cell proliferation of PCa. LNCaP (FIG. 3A) or C4-2 cells (FIG. 3B) were incubated with 5 μM R11PPL, R11AAL or without peptide 3 hours before adding serum or DHT (10 nM) and relative cell number was determined by MTT assay. All the experiments were carried out in quadruplicates and repeated at least twice. Each column represents mean±SD in triplicate.
(§3) Cell growth assay and cell cycle analysis. Cells were plated in 96-well plate at a density of 10^3 per well in T-medium supplemented with 5% charcoal-stripped FBS for overnight. Cells were incubated with or without indicated peptides (5 μM) for 3 hours in the presence of T-medium supplemented with 0.5% charcoal-stripped FBS. Subsequently, cells were replaced with T-medium containing either 5% FBS or 10 nM dihydrotestosterone (DHT). The peptides were changed every 2 days. The cell proliferation was determined 4 days after the initial peptide treatment by using 3-(4,5-dimethylthiazol-2-yl)-2,5-diphenyltetrazolium bromide (MTT) assay (Roche, Indianapolis, Ind.).

C4-2 cells = assay: as above; type: cell-based; conditions: 5 μM peptide, 5% FBS or 10 nM DHT, MTT 4 days
Procedure: as §2, §3

[8] = system: R11 uptake by bladder cancer cells; assay: inhibitor and GAG competition of R11 uptake in bladder cancer cells; type: cell-based, human; conditions: for competition of R11 uptake by GAGs: various concentrations of GAG with 5 μM R11, 30 min
Procedure: FIGS. 10A-C—Determination of primary interaction molecule for R11 uptake in several bladder cancer cells. Human bladder cancer cells were pre-treated with various inhibitors (FIG. 10A: EIPA; FIG. 10B: Toxin B) 2 h and then incubated with 5 μM CPPs for 30 min before harvesting cell for determining cellular uptake. For competition assay, various concentrations of GAG's and 5 μM R9, R11, or R13 were added into cells for 30 min before harvesting cell for determining cellular uptake (FIG. 10C). Relative uptake was determined based on control (=1).
In order to define R11 as a bladder-specific molecular probe, it is critical to unveil the mechanism of R11 uptake. […] Furthermore, they examined a variety of glycosaminoglycans (GAGs) commonly detected in bladder wall (De Klerk, 1985) for their abilities to block the R11 uptake.

- half-life of R11 (LNCaP [2]): 23.4 h
- half-life of R11 (C4-2): 24.1 h
- half-life of R11 (PC3): 24.0 h
- half-life at 5 μM (in vitro): 23 to 24 h
- half-life of R11 (LAPC4): 22.8 h
Molecule: N=C(N)NCCC[C@H](NC(=O)[C@H](CCCNC(=N)N)NC(=O)[C@H](CCCNC(=N)N)NC(=O)[C@H](CCCNC(=N)N)NC(=O)[C@H](CCCNC(=N)N)NC(=O)[C@H](CCCNC(=N)N)NC(=O)[C@H](CCCNC(=N)N)NC(=O)[C@H](CCCNC(=N)N)NC(=O)[C@H](CCCNC(=N)N)NC(=O)[C@H](CCCNC(=N)N)NC(=O)[C@H](CCCNC(=N)N)NC(=O)CNC(=S)Nc1ccc2c(c1)C(=O)OC21c2ccc(O)cc2Oc2cc(O)ccc21)C(=O)O [R11, ^FITC-G-R11]
- tissue localization in mouse bladder (histologic examination) [1]: presence of R11 in both transitional and stromal cell compartments of bladder
- ex vivo fluorescence signal of lung tumor lesion [3]: clear fluorescence signal is visualized in the ex vivo tumor lesion

- interaction between Grb2 and SOS [5]: dose-dependent inhibitory effect
Molecule: ^FITC-G-RRRRRRRRRRR-GGG-FQLRQPPLVPSRKGE ({FITC}-GRRRRRRRRRRRGGGFQLRQPPLVPSRKGE) [R11PPL, FITC-R11 conjugated with PPL (DOC-2/DAB2 PR domain) at C-terminus]
- uptake of R11, R11AAL and R11PPL compared [4]: very similar
- serum-induced activation of Erk2 ([6]; 5 μM peptide 3 hours before 5% FBS): suppressed
- EGF induced activation of Erk2 ([6]; 5 μM peptide 3 hours before EGF 10 ng/ml): could suppress
- serum or DHT-induced cell proliferation (LNCaP [7]): suppressed
- serum or DHT-induced cell proliferation (C4-2 cells): suppressed

Molecule: pentosan sulfate
- competition of R11 uptake by GAGs [8]: effectively compete the uptake of R11

Molecule: ^FITC-G- RRRRRRRRRRR -GG-FQLRQAALVASRKGE [R11AAL]
- uptake of R11, R11AAL and R11PPL compared [4]: very similar
- serum or DHT-induced cell proliferation (LNCaP [7]): did not exhibit any effect
- serum or DHT-induced cell proliferation (C4-2 cells): did not exhibit any effect

Molecule: protamine sulfate
- competition of R11 uptake by GAGs [8]: effectively compete the uptake of R11

Molecule: ^FITC-G-KLALKLALKALKAALKLA ({FITC}-GKLALKLALKALKAALKLA) [KALA, KALA peptide, FITC-labeled]
- uptake efficiency among five CPPs (rank) [4]: R11>>KALA≧TAT≧PENE≧K11

Molecule: ^FITC-G-RKKRRQRRR (N-terminal FITC-Gly) [TAT, CPP derived from HIV TAT amino acid 49-57, FITC-labeled]
- uptake efficiency among five CPPs (rank) [4]: R11>>KALA≧TAT≧PENE≧K11

Molecule: CCN(c1nc(N)c(C(=O)NC(=N)N)nc1Cl)C(C)C [EIPA]
- effect of inhibitor on R11 uptake ([8]; pre-treated 2 h, then 5 μM CPPs 30 min): effectively diminish R11 uptake

Molecule: dextran sulfate
- competition of R11 uptake by GAGs [8]: effectively compete the uptake of R11

- interaction between Grb2 and SOS [5]: inhibited
B1: DOC-2/DAB2: native protein, expression plasmid transfection used as a positive control in pull-down (protein, UniProt P98082 2-770, looked up)
Disabled homolog 2: SNEVETSATNGQPDQQAAPKAPSKKEKKKGPEKTDEYLLARFKGDGVKYKAKLIGIDDVPDARGDKMSQDSMMKLKGMAAAGRSQGQHKQRIWVNISLSGIKIIDEKTGVIEHEHPVNKISFIARDVTDNRAFGYVCGGEGQHQFFAIKTGQQAEPLVVDLKDLFQVIYNVKKKEEEKKKIEEASKAVENGSEALMILDDQTNKLKSGVDQMDLFGDMSTPPDLNSPTESKDILLVDLNSEIDTNQNSLRENPFLTNGITSCSLPRPTPQASFLPENAFSANLNFFPTPNPDPFRDDPFTQPDQSTPSSFDSLKSPDQKKENSSSSSTPLSNGPLNGDVDYFGQQFDQISNRTGKQEAQAGPWPFSSSQTQPAVRTQNGVSEREQNGFSVKSSPNPFVGSPPKGLSIQNGVKQDLESSVQSSPHDSIAIIPPPQSTKPGRGRRTAKSSANDLLASDIFAPPVSEPSGQASPTGQPTALQPNPLDLFKTSAPAPVGPLVGLGGVTVTLPQAGPWNTASLVFNQSPSMAPGAMMGGQPSGFSQPVIFGTSPAVSGWNQPSPFAASTPPPVPVVWGPSASVAPNAWSTTSPLGNPFQSNIFPAPAVSTQPPSMHSSLLVTPPQPPPRAGPPKDISSDAFTALDPLGDKEIKDVKEMFKDFQLRQPPAVPARKGEQTSSGTLSAFASYFNSKVGIPQENADHDDFDANQLLNKINEPPKPAPRQVSLPVTKSTDNAFENPFFKDSFGSSQASVASSQPVSSEMYRDPFGNPFA
